In assay [1] the test system is IL6 production in RAW 264.7 macrophage cell line. As to the kind of experiment: Mouse IL6 quantification assay (LPS-stimulated macrophages, ELISA). The conditions noted are these: RAW264.7, RAW 264.7 murine leukemia virus transformed macrophage cell lines, LPS stimulation, read-out: IL-6 % Inhibition at 30 μM. The format is cell-based. A general note: An ELISA detects its analyte on a solid surface through an enzyme-linked reagent.

The test system of assay [2] is TNFα production in RAW 264.7 macrophage cell line. Put plainly: Mouse TNF alpha quantification assay (LPS-stimulated macrophages, ELISA). The assay is classed as cell-based. The conditions noted are these: RAW264.7, RAW 264.7 murine leukemia virus transformed macrophage cell lines, LPS stimulation, read-out: TNF-α % Inhibition at 30 μM.

This note sets out measurements from patent publication US10940139B2, “Compounds that interact with the Ras superfamily for the treatment of cancers, inflammatory diseases, rasopathies, and fibrotic disease” (Shy Therapeutics LLC, priority 2017, dated 2021).

What is called inhibition is the percentage by which the read-out fell short of the control.

For the compound `O=C(Cc1ccc(F)cc1)Nc1nnc(-c2ccccn2)[nH]1` [drawing 1970], the inhibition at 30 µM in assay [1] and in assay [2] was 1 to 25% throughout.
With `O=C(Nc1nnc(-c2ccccn2)[nH]1)c1ccc(=O)[nH]n1` [drawing 2003], the values for the inhibition at 30 µM in assay [1] and in assay [2] were 26 to 50% and 1 to 25%, respectively.
On the same counts, the results for `Cc1sc2c(O)nc(-c3ccccn3)nc2c1-c1ccccc1Cl` [drawing 2342] are 51 to 75% and 51 to 75%.
As for `N#Cc1ccc(CC(=O)Nc2ccnc(-c3ccccn3)n2)cc1` [drawing 2125], the inhibition at 30 µM in assay [1] and in assay [2] was 1 to 25% in each case.
Take `Nc1nc(O)c2scc(C(=O)NCCc3cccnc3)c2n1` [drawing 2098]: the inhibition at 30 µM in assay [1] and in assay [2] was 1 to 25% throughout.
Consider `CC(C)(O)c1ccc(-c2csc3c(O)nc(-c4ccccn4)nc23)c(F)c1` [drawing 2272], for which the inhibition at 30 µM in assay [1] and in assay [2] was 76 to 100% throughout.
For `OCC1(c2ccc(-c3nc(-c4ccccn4)nc(O)c3Oc3ccccc3)cc2)CC1` [drawing 2361], the values for the inhibition at 30 µM in assay [1] and in assay [2] were 0% and 26 to 50%, respectively.
Take `CN(CCCc1n[nH]c(N)c1C#N)c1nc(-c2ccccn2)nc2sc(-c3ccccc3)cc12` [drawing 2142]: the inhibition at 30 µM lay in the range of 76 to 100% in assay [1] and 51 to 75% in assay [2].
On the same counts, the results for `COCCCn1ccc(Nc2cc(C)nc(-c3ccccn3)n2)n1` [drawing 2041] are 26 to 50% and 0%.
On the same counts, the results for `O=c1nc(-c2ccccn2)[nH]c2sc(-c3ccccc3)cc12` [drawing 2028] are 51 to 75% and 76 to 100%.
On the same counts, the results for `COc1cnc(-c2ccccn2)nc1O` [drawing 2307] are 76 to 100% and 1 to 25%.
Turning to `COc1ccc(-c2csc3c(O)nc(-c4ccccn4)nc23)c(C)c1` [drawing 2273], the inhibition at 30 µM in assay [1] and in assay [2] was 76 to 100% throughout.
As to `COc1ccnc(-c2nc(O)c3c(C#N)csc3n2)c1` [drawing 2203], the inhibition at 30 µM in assay [1] was 1 to 25%; in assay [2] it was 0%.
On to `Cc1c(C(=O)O)sc2c(O)nc(-c3ccccn3)nc12` [drawing 2313], for which the inhibition at 30 µM in assay [1] and in assay [2] was 76 to 100% each time.
As to `O=C(Nc1nc(-c2ccccn2)cs1)c1ccncc1` [drawing 2019], the inhibition at 30 µM in assay [1] was in the range of 26 to 50%; in assay [2], 1 to 25%.
On the same counts, the results for `Cc1sc2c(O)nc(-c3ccccn3)nc2c1C(=O)N1CCN(c2ccccc2)CC1C` (stereo not shown) [drawing 2333] are 1 to 25% and 0%.
In the case of `Cn1ccnc1-c1nc(O)c2c(-c3ccccc3)c(-c3ccccc3)sc2n1` [drawing 2363], the inhibition at 30 µM lay within 1 to 25% in assay [1] and 26 to 50% in assay [2].
On to `COCCCC1CCN(C(=O)c2csc3c(O)nc(-c4ccccn4)nc23)CC1` [drawing 2104], for which the inhibition at 30 µM in assay [1] was 51 to 75%; in assay [2], 1 to 25%.
On the same counts, the results for `O=C(NCCc1ccncn1)c1csc2nc(-c3ccccn3)nc(N3CCOCC3)c12` [drawing 2321] are 1 to 25% and 0%.
On the same counts, the results for `O=C(c1ccn(-c2ccccc2)n1)N1CCCc2c(O)nc(-c3ccccn3)nc21` [drawing 2076] are 76 to 100% and 26 to 50%.
On the same counts, the results for `O=S1(=O)CCC(N2CCN(c3nc(-c4ccccn4)nc4scc(-c5ccccc5)c34)CC2)C1` (stereo not shown) [drawing 2145] are 1 to 25% and 1 to 25%.
As for `O=C(c1csc2c(O)nc(-c3ccccn3)nc12)N1CCNC(c2ccc(Cl)cc2)C1` (stereo not shown) [drawing 2352], the inhibition at 30 µM in assay [1] lay in the range of 76 to 100%; in assay [2], 1 to 25%.
On the same counts, the results for `O=C(c1csc2c(O)nc(-c3ccccn3)nc12)N1CCNC(c2ccc(F)cc2)C1` (stereo not shown) [drawing 2217] are 1 to 25% and 0%.
Take `COC(=O)C(C)CN(Cc1cc(Br)ccc1[N+](=O)[O-])C1CC1` (stereo not shown) [drawing 2063]: the figures for the inhibition at 30 µM in assay [1] and in assay [2] were 26 to 50% and 0%, respectively.
The matching figures for `OCCOCCNc1nc(-c2ccccn2)nc2scc(-c3ccccc3)c12` [drawing 2044]: 1 to 25% and 1 to 25%.
The matching figures for `CC(Oc1ccccc1C#N)C(=O)Nc1nnc(-c2ccccn2)[nH]1` (stereo not shown) [drawing 1966]: 0% and 1 to 25%.
The matching figures for `Oc1nc(-c2ccccn2)nc2c(C3CCCC3)csc12` [drawing 2337]: 51 to 75% and 26 to 50%.
As to `O=C(Nc1nnc(-c2ccccn2)[nH]1)c1cccc(N2CCCS2(=O)=O)c1` [drawing 1989], the inhibition at 30 µM in assay [1] and in assay [2] was 1 to 25% each time.
`N#Cc1cccc(N2CCN(C(=O)c3csc4c(O)nc(-c5ccccn5)nc34)CC2)c1` [drawing 2181]: the values for the inhibition at 30 µM in assay [1] and in assay [2] were 51 to 75% and 0%, respectively.
Take `COc1ccc(OCc2nc(CNCCc3nnc4n3CCC4)cs2)cc1` [drawing 2006]: the inhibition at 30 µM in assay [1] was 1 to 25%; in assay [2], 0%.
On the same counts, the results for `O=C(Nc1nnc(-c2ccccn2)[nH]1)C1=NOC(c2ccccc2)C1` (stereo not shown) [drawing 1992] are 26 to 50% and 1 to 25%.
On the same counts, the results for `CC(CO)Nc1nc(-c2nccn2C)nc2sc(-c3ccccc3)c(-c3ccccc3)c12` (stereo not shown) [drawing 2405] are 51 to 75% and 1 to 25%.
Regarding `CN(CCc1ccncc1)C(=O)c1csc2c(O)nc(-c3ccccn3)nc12` [drawing 2114], the results for the inhibition at 30 µM in assay [1] and in assay [2] were 51 to 75% and 0%, respectively.
The matching figures for `Cc1nc(-c2ccccn2)sc1C(=O)Nc1nnc(-c2ccccn2)[nH]1` [drawing 1983]: 1 to 25% and 0%.
The matching figures for `Cc1nn(C(C)C)cc1-c1csc2c(O)nc(-c3ccccn3)nc12` [drawing 2328]: 76 to 100% and 26 to 50%.
On the same counts, the results for `CN(CC(=O)Nc1nnc(-c2ccccn2)[nH]1)S(C)(=O)=O` [drawing 1959] are 0% and 1 to 25%.
Turning to `COc1ccc(COC[C@H]2O[C@@H](c3csc4c(=O)[nH]c(-c5ccccn5)nc34)[C@H](O)[C@@H]2O)cc1` [drawing 2360], the figures for the inhibition at 30 µM in assay [1] and in assay [2] were 1 to 25% and 26 to 50%, respectively.
The matching figures for `COc1cccc(CN2CCN(C(=O)c3csc4c(O)nc(-c5ccccn5)nc34)CC2)c1` [drawing 2188]: 51 to 75% and 0%.
On the same counts, the results for `O=C(CCc1c[nH]c2ccccc12)Nc1nnc(-c2ccccn2)[nH]1` [drawing 1941] are 51 to 75% and 0%.
On the same counts, the results for `CCOc1cc(S(=O)(=O)N(Cc2ccccc2)Cc2ccccc2)c(OCC)cc1C` [drawing 2059] are 1 to 25% and 1 to 25%.
In the case of `Oc1nc(-c2ccccn2)nc2c1ncn2-c1ccccn1` [drawing 2124], the values for the inhibition at 30 µM in assay [1] and in assay [2] were 26 to 50% and 0%, respectively.
The matching figures for `COc1nc(-c2ccccn2)nc(Oc2cccc(C(F)(F)F)c2)c1OC` [drawing 2379]: 1 to 25% and 1 to 25%.
On the same counts, the results for `COc1cccc(COCC(=O)Nc2nnc(-c3ccccn3)[nH]2)c1` [drawing 1985] are 26 to 50% and 1 to 25%.
Regarding `Oc1nc(-c2ccccn2)nc2c(-c3cnc4ccccc4c3)csc12` [drawing 2300], the inhibition at 30 µM in assay [1] was in the range of 76 to 100%; in assay [2] it was 1 to 25%.
The matching figures for `O=S(=O)(CCc1ccccc1)N1CCCc2c(O)nc(-c3ccccn3)nc21` [drawing 2083]: 26 to 50% and 0%.
The matching figures for `CC(C)C(=O)Nc1nc(CC(=O)Nc2nnc(-c3ccccn3)[nH]2)cs1` [drawing 1990]: 0% and 1 to 25%.
The matching figures for `Cc1nc(-c2ccccn2)nc(O)c1CCC(=O)Nc1cc(F)ccc1F` [drawing 2032]: 1 to 25% and 1 to 25%.
With `CON(C)c1nc(-c2ccccn2)nc2scc(-c3ccccc3)c12` [drawing 2147], the results for the inhibition at 30 µM in assay [1] and in assay [2] were 26 to 50% and 1 to 25%, respectively.
The matching figures for `COCCNc1nc(-c2nccn2C)nc2sc(C3CCOCC3)c(-c3ccccc3)c12` [drawing 2417]: 76 to 100% and 76 to 100%.
The matching figures for `Cn1cnc(-c2nc(O)c3c(-c4ccccc4)c(-c4ccncc4)sc3n2)c1` [drawing 2355]: 0% and 1 to 25%.
The matching figures for `Cc1nc2nc(C(F)(F)F)nn2c(C)c1CC(=O)Nc1nnc(-c2ccccn2)[nH]1` [drawing 1984]: 0% and 1 to 25%.
As for `COc1ccc(-c2csc3c(O)nc(-c4nccn4C)nc23)cn1` [drawing 2440], the inhibition at 30 µM in assay [1] and in assay [2] was 76 to 100% in each case.
`O=C(Nc1nnc(-c2ccccn2)[nH]1)C1CC1c1ccc(F)cc1` (stereo not shown) [drawing 1974]: the inhibition at 30 µM in assay [1] and in assay [2] was 1 to 25% each time.
As for `c1ccc(-c2csc3nc(-c4ccccn4)nc(N4CCN(Cc5cccnc5)CC4)c23)cc1` [drawing 2139], the inhibition at 30 µM in assay [1] was in the range of 76 to 100%; in assay [2], 51 to 75%.
The matching figures for `Nc1nc(O)c2sc(-c3cccc(C(=O)NCc4ncc[nH]4)c3)cc2n1` [drawing 2372]: 0% and 0%.
For the compound `Oc1nc(-c2ccccn2)nc2[nH]cnc12` [drawing 2122], the inhibition at 30 µM in assay [1] and in assay [2] was 76 to 100% throughout.
